The structures appear in SMILES notation.

In one experiment the target is PSMA (Homo sapiens, UniProt Q04609). Put plainly: PSMA competitive binding, PC-3 PIP cells with [125I]MIP-1095. Also on record: expressed in transfected cells; host or cells: PC-3 PIP cells.
Chain of PSMA (Q04609 whole entry, species assumed): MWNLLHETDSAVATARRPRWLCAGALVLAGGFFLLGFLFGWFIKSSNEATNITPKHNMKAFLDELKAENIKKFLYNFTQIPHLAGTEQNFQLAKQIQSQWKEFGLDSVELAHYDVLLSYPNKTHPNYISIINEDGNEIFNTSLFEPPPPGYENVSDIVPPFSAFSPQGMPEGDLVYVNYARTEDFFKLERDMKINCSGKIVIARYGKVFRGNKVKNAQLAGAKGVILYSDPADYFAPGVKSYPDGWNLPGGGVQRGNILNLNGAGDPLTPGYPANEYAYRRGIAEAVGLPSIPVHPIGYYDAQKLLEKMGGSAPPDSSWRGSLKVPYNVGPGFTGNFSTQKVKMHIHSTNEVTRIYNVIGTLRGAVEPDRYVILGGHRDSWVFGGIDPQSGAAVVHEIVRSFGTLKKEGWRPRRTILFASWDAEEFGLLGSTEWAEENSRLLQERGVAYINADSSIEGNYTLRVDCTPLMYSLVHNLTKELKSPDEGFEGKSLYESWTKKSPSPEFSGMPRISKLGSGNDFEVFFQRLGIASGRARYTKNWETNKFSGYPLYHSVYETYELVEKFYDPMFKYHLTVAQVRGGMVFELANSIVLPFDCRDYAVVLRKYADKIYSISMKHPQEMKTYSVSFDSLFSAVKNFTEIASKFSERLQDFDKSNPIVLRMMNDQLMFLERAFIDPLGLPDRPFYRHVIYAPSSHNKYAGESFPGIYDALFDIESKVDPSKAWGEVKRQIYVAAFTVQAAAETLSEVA
Conditions: not given
Here is the method: In vitro binding assays were carried out to determine the PSMA binding affinity of various compounds. By incubating PSMA positive cells either with: 1). LNCaP with 0.2 nM [^68Ga]PSMA-11 or [^125I]MIP-1095, as the ligand, in the presence of 10 different concentrations of competing ligands; non-specific binding was defined with 20 μM 2-PMPA (2-(phosphonomethyl)pentanedioic acid); or 2). PC-3 PIP cells with [^125I]MIP-1095 (0.18 nM diluted in PBS) in presence of different concentration of test compounds ([…] diluted in PBS containing 0.1% bovine serum albumin). Nonspecific binding (NSB) was defined with 2 μM the known PSMA inhibitor, PSMA-617. After incubation at 37° C. for 1 h, the bound and free fractions were separated by vacuum filtration through GF/B filters using a Brandel M-24R cell harvester. The filters were washed twice with cold Tris-HCl buffer (50 mM, pH=7.4), and the radioactivity on the filters was counted in a gamma counter (Wizard^2, Perkin-Elmer) with 50% efficiency. The nonspecific bound was less than 10% of the total bound. Data were analyzed using GraphPad Prism 6.0 with a nonlinear regression algorithm to obtain the half maximal inhibitory concentration (IC50).
The binding affinities to PSMA of the test compounds were measured by a competitive binding assay using either LNCap or PC-3 PIP cells suspension and the known radiotracers known to have high affinity and specificity to PSMA, [^68Ga]PSMA-11 or [^125I]MIP-1095. The IC50 values of four iodinated compounds, three DOTA, DOTAG and DOTA(GA)2 related compounds and two known PSMA inhibitors are shown in Table 1. Complexes of compound 4 and natural Ga and natural Lu were also tested. […] After labeling with radioisotope they are expected to bind to the tumor tissues over expressing PSMA binding sites.
In the case of `O=C(O)CC[C@H](NC(=O)N[C@@H](CCCCNC(=O)[C@H](Cc1ccccc1)NC(=O)COc1ccc(C[C@H](NC(=O)CNC(=O)CCC2C(=O)[O][Lu-4]345678[O]C(=O)CN9CC[N+]23CC[N+]4(CC[N+]5(CC9)C(CCC(=O)[OH+]6)C(=O)[O]7)CC(=O)[O]8)C(=O)O)cc1)C(=O)O)C(=O)O` (some centres unmarked) [[^natLu]4], the IC50 (in general, the point on the concentration scale where inhibition reaches its midpoint) was found to be 0.0187 ± 0.0003 µM.

The same experiment, now with this note: n = 3 (a: n = 2); read-out: IC50 *(PC-3 PIP cells and [125I]MIP-1095).
Regarding `O=C(O)CC[C@H](NC(=O)N[C@@H](CCCCNC(=O)[C@H](Cc1ccccc1)NC(=O)[C@H](CCC(=O)O)NC(=O)c1ccc(I)cc1)C(=O)O)C(=O)O` [Compound 17, (((S)-1-Carboxy-5-((S)-2-((S)-4-carboxy-2-(4-iodobenzamido)butanamido)-3-phenylpropanamido)pentyl)carbamoyl)-L-glutamic acid], the IC50 came out at 0.00263 ± 0.00013 µM.
Still for that read-out and setting: with `O=C(O)CC[C@H](NC(=O)N[C@@H](CCCCNC(=O)[C@H](Cc1ccccc1)NC(=O)[C@H](CCC(=O)O)NC(=O)[C@H](CCC(=O)O)NC(=O)c1ccc(I)cc1)C(=O)O)C(=O)O` [Compound 18, (((S)-1-Carboxy-5-((S)-2-((S)-4-carboxy-2-((S)-4-carboxy-2-(4-iodobenzamido)butanamido)butanamido)-3-phenylpropanamido)pentyl)carbamoyl)-L-glutamic acid] the figure was 0.00199 ± 6e-05 µM.
With `O=C(O)CC[C@H](NC(=O)N[C@@H](CCCCNC(=O)[C@H](Cc1ccccc1)NC(=O)COc1ccc(C[C@H](NC(=O)[C@H](CCC(=O)O)NC(=O)c2ccc(I)cc2)C(=O)O)cc1)C(=O)O)C(=O)O` [Compound 26, (((S)-1-Carboxy-5-((S)-2-(2-(4-((S)-2-carboxy-2-((S)-4-carboxy-2-(4-iodobenzamido)butanamido)ethyl)phenoxy)acetamido)-3-phenylpropanamido)pentyl)carbamoyl)-L-glutamic acid], the IC50 was 0.00474 ± 0.00037 µM.
For `O=C(O)CCC(C(=O)O)N1CCN(CC(=O)O)CCN(C(CCC(=O)N[C@@H](CCC(=O)O)C(=O)N[C@@H](CCC(=O)O)C(=O)N[C@@H](Cc2ccc(OCC(=O)N[C@@H](Cc3ccccc3)C(=O)NCCCC[C@H](NC(=O)N[C@@H](CCC(=O)O)C(=O)O)C(=O)O)cc2)C(=O)O)C(=O)O)CCN(CC(=O)O)CC1` (stereo partly drawn) [Compound 29, (((1S)-5-((2S)-2-(2-(4-((2S)-2-((2S)-2-((2S)-2-(4-(4,10-Bis(carboxymethyl)-7-(1,3-dicarboxypropyl)-1,4,7,10-tetraazacyclododecan-1-yl)-4-carboxybutanamido)-4-carboxybutanamido)-4-carboxybutanamido)-2-carboxyethyl)phenoxy)acetamido)-3-phenylpropanamido)-1-carboxypentyl)carbamoyl)-L-glutamic acid], the IC50 was found to be 0.0226 ± 0.00159 µM.
Turning to `O=C(O)CC[C@H](NC(=O)N[C@@H](CCCCNC(=O)[C@H](Cc1ccccc1)NC(=O)COc1ccc(C(=O)NCCCC[C@H](NC(=O)CNC(=O)CCC(C(=O)O)N2CCN(CC(=O)O)CCN(CC(=O)O)CCN(CC(=O)O)CC2)C(=O)O)cc1)C(=O)O)C(=O)O` (stereo partly drawn) [Compound 38, (((1S)-1-Carboxy-5-((2S)-2-(2-(4-(((5S)-5-carboxy-5-(2-(4-carboxy-4-(4,7,10-tris(carboxymethyl)-1,4,7,10-tetraazacyclododecan-1-yl)butanamido)acetamido)pentyl)carbamoyl)phenoxy)acetamido)-3-phenylpropanamido)pentyl)carbamoyl)-L-glutamic acid], the IC50 turned out to be 0.0281 ± 0.00085 µM.
On to `O=C(O)CCc1ccc(O)c(CN(CCN(CC(=O)O)Cc2cc(CCC(=O)NCCCCCC(=O)NCCCC[C@H](NC(=O)N[C@@H](CCC(=O)O)C(=O)O)C(=O)O)ccc2O)CC(=O)O)c1` [PSMA-11, Glu-NH—CO—NH-Lys-(Ahx)-(HBED-CC), reference compound], for which the IC50 was found to be 0.0478 ± 0.00316 µM.
On the same count and under the same terms, the result for `O=C([O-])CN1CCN(C(CCC(=O)NCC(=O)N[C@@H](Cc2ccc(OCC(=O)N[C@@H](Cc3ccccc3)C(=O)NCCCC[C@H](NC(=O)N[C@@H](CCC(=O)O)C(=O)O)C(=O)O)cc2)C(=O)O)C(=O)[O-])CCN(CC(=O)[O-])CCN(C(CCC(=O)O)C(=O)O)CC1.[Ga+3]` (stereo partly drawn) [[^natGa]4, (4S,11S,15S)-4-benzyl-1-(4-((2S)-2-(2-(4-(4,10-bis(carboxymethyl)-7-(1,3-dicarboxypropyl)-1,4,7,10-tetraazacyclododecan-1-yl)-4-carboxylatebutanamido)acetamido)-2-carboxyethyl)phenoxy)-2,5,13-trioxo-3,6,12,14-tetraazaheptadecane-11,15,17-tricarboxylate gallium] reads 0.0222 ± 0.0021 µM.

The record behind these values is US20220125959A1, “PROSTATE-SPECIFIC MEMBRANE ANTIGEN (PSMA) INHIBITORS AS DIAGNOSTIC AND RADIONUCLIDE THERAPEUTIC AGENTS” (FIVE ELEVEN PHARMA INC., priority 2019, published 2022).
